Assay results taken from PMC4552634, “A New Set of Chemical Starting Points with Plasmodium falciparum Transmission-Blocking Potential for Antimalarial Drug Discovery” (PLoS ONE, 2015).
Values joined by “and” are separate entries in the source; they are usually repeats but may differ in a detail not shown here. Equal values may be shown once. Read-outs that look alike come from different tables or passages of the source.

Columns and labels:
[1] = tested on: HepG2 cells; assay: Cytotoxicity in HepG2 cells (intracellular ATP, ATPlite, 48 h); assay type: cell-based, human; details: HepG2 cells; IC50 per ratio column head; unit inferred
[2] = tested on: P. falciparum stage V gametocytes; assay: Gametocytocidal ATP bioluminescence assay (single point 5 μM and 1 μM, dose-response); assay type: cell-based, Plasmodium falciparum; details: for Ratio IC50 HepG2/IC50 P. falciparum: IC50 HepG2 divided by IC50 P. falciparum gametocytes
Experimental: Purified stage IV-V gametocytes were obtained as previously described [10]. Single point ATP bioluminescence assay and dose–response of positive hits was determined in accordance with the previously published protocol [10].

[3] = tested on: P. falciparum asexual stages; details: asexual stages; TCAMS data; read-out: IC50 asexual; cited from earlier work
[4] = P. falciparum gametocytes, average, read-out: IC50 Pf Gametocytes average, IC50 (µM) average
[5] = sexual stages (gametocytes), dose-response, read-out: IC50 sexual

| SMILES | IC50 [1] | Ratio IC50 HepG2/IC50 P. falciparum [2] | IC50 [2, 4] | IC50 [3] [nM] | IC50 [2, 5] [µM] |
| --- | --- | --- | --- | --- | --- |
| C#CCOc1ccc2ccccc2c1CNCCCCCCNCc1c(OCC#C)ccc2ccccc12 [TCMDC-137838] | 3.19 µM | 6.38 | 0.5 µM | 780 | – |
| COc1cc2ccccc2c(OC)c1CCNCCCCNCCc1c(OC)cc2ccccc2c1OC [TCMDC-137842] | 3.2 µM | 10 | 0.31 µM | 891 | 0.305 |
| COc1cc2ccccc2c(OC)c1CNCCCCCCNCc1c(OC)cc2ccccc2c1OC [TCMDC-137843] | 4.25 µM | 13 | 0.32 µM | 988 | 0.319 |
| CCCCOc1cc(OC)c2ccccc2c1CCNCCCCNCCc1c(OCCCC)cc(OC)c2ccccc12 [TCMDC-137845] | 3 µM | 6 | 0.5 µM | 1050 | – |
| CCCCOc1c(CCNCCCCNCCc2cc(OC)c3ccccc3c2OCCCC)cc(OC)c2ccccc12 [TCMDC-137848] | 3.1 µM | 39 | 0.08 µM | 925 | – |
| FC(F)(F)COc1ccc(CNCCCCCCNCc2ccc(OCC(F)(F)F)c3ccccc23)c2ccccc12 [TCMDC-137853] | 3 µM | 55 | 0.055 µM | 400 | – |
| COc1c(CCNCCCCNCCc2cc(Cl)c3ccccc3c2OC)cc(Cl)c2ccccc12 [TCMDC-137869] | 3.36 µM | 40 | 0.08 µM | 168 | 0.083 |
| NC(N)=NN=Cc1c2ccccc2c(Cl)c2cc(Cl)ccc12 [TCMDC-137903] | 7.5 µM | 3.2 | 2.35 µM | 791 | 2.35 |
| c1ccc2c(CNCCCN3CCN(CCCNCc4c5ccccc5cc5ccccc45)CC3)c3ccccc3cc2c1 [TCMDC-137909] | 6.28 µM | 60 | 0.11 µM | 182 | 0.105 |
| COc1ccc2ccccc2c1CNCCCCCCNCc1c(OC)ccc2ccccc12 [TCMDC-137915] | 3.59 µM | 14 | 0.25 µM | 712 | 0.253 |
| CCOc1cc(CNCCCCCCNCc2cc(OCC)c(OCC)c3ccccc23)c2ccccc2c1OCC [TCMDC-137939] | 2.7 µM | 3.62 | 0.75 µM | 284 | 0.745 |
| COc1cc2ccccc2cc1CCNCCCCNCCc1cc2ccccc2cc1OC [TCMDC-137944] | 3.39 µM | 32 | 0.11 µM | 403 | 0.105 |
| COc1ccc2c(OC)c(CNCCCCCCNCc3ccc4cc(OC)ccc4c3OC)ccc2c1 [TCMDC-137953] | 3.2 µM | 2 | 1.54 µM | 920 | – |
| CCCCCCOc1ccc2ccccc2c1CNCCCCCCNCc1c(OCCCCCC)ccc2ccccc12 [TCMDC-137963] | 3.3 µM | 7 | 0.48 µM | 1060 | – |
| CC(C)Oc1ccc2ccccc2c1CNCCCCCCNCc1c(OC(C)C)ccc2ccccc12 [TCMDC-137965] | 2.38 µM | 17 | 0.14 µM | 612 | – |
| CCCOc1ccc2ccccc2c1CNCCCCCCNCc1c(OCCC)ccc2ccccc12 [TCMDC-137966] | 3.1 µM | 9 | 0.34 µM | 791 | – |
| CC(C)COc1ccc2ccccc2c1CNCCCCCCNCc1c(OCC(C)C)ccc2ccccc12 [TCMDC-137972] | 1.88 µM | 18 | 0.1 µM | 695 | 0.103 |
| CC(C)(C)c1ccc(-c2cc3c(ccc4nc(N)nc(N)c43)[nH]2)cc1 [TCMDC-137977] | 3.26 µM | 6 | 0.55 µM | 113 | – |
| CC(C)(C)c1ccc(-c2nc3c(ccc4nc(N)nc(N)c43)[nH]2)cc1 [TCMDC-137984] | 3.85 µM | 19 | 0.21 µM | 158 | 0.205 |
| CC(=O)c1ccc2nc[nH]c(=O)c2c1 [TCMDC-138172] | < 1.56 µM | <3.9 | 0.4 µM | 722 | – |
| Cc1nc(-c2cccc(Nc3ccnc4cc(-c5nccs5)ccc34)c2)no1 [TCMDC-138334] | 7.62 µM | 25 | 0.3 µM | 322 | – |
| Cc1cc(NCCc2ccccc2)nc(/N=C(\N)Nc2ccccc2Cl)n1 [TCMDC-138370] | 13.6 µM | 2.79 | 4.87 µM | 789 | – |

| SMILES | IC50 [1] | Ratio IC50 HepG2/IC50 P. falciparum [2] | IC50 [2, 4] | IC50 [3] [nM] | IC50 [2, 5] [µM] |
| --- | --- | --- | --- | --- | --- |
| CN(C)CCNCc1ccc(-c2ccc3c(Nc4ccc(Oc5ccccc5)cc4)ccnc3c2)o1 [TCMDC-138399] | 7.57 µM | 23 | 0.33 µM | 280 | 0.325 |
| CN(C)CCN(C)Cc1cccc(-c2ccc3c(Nc4ccc(F)cc4Cl)ccnc3c2)c1 [TCMDC-138416] | 3.6 µM | 7.5 | 0.48 µM | 110 | – |
| C=CCC1OC(=O)c2cc(OC)cc(OC)c21 (stereo not shown) [TCMDC-138677] | < 1.56 µM | <2.6 | 0.6 µM | 343 | – |
| C=C(C)Cn1cc(C2CCN(CCN3CCC(CNC(=O)c4ccc(-c5ccc(C#N)cc5)cc4)CC3)CC2)c2ccccc21 [TCMDC-138854] | 3.7 µM | 1.26 | 2.93 µM | 433 | – |
| COc1c(C2CCN(CCN3CCC(CNC(=O)c4ccc(-c5ccc(C#N)cc5)cc4)CC3)CC2)ccc2c1CCCC2 [TCMDC-138859] | 3.3 µM | 2.83 | 1.17 µM | 455 | 1.17 |
| CC1(C)CC(NCCCCCCCOc2ccc(OCc3ccccc3)cc2)CC(C)(C)N1 [TCMDC-138958] | 3 µM | 4.41 | 0.68 µM | 827 | – |
| Clc1ccc(OCCC2CCN(CCCCCCCN3CCC(CCOc4ccc(Cl)c(Cl)c4)CC3)CC2)cc1Cl [TCMDC-138967] | 4.4 µM and 2.6 µM | 6 and 5.59 | 0.7 µM and 0.47 µM | 624 | – |
| O=C(NCCCCN1CCC(c2c[nH]c3ccc(-c4ccccc4)cc23)CC1)c1ccc(-c2ccccc2)cc1 [TCMDC-139064] | 9.4 µM | 5 | 1.83 µM | 985 | – |
| O=C(/C=C/c1ccc(Cl)c(Cl)c1)NCCCCCN1CCCC(CNS(=O)(=O)c2cccc(C(F)(F)F)c2)C1 (stereo not shown) [TCMDC-139597] | 3.8 µM | 0.4 | 8.63 µM | 950 | – |
| CC(Cc1ccc(CNC(=O)NCc2ccc(CC(C)NCCc3cccc(Cl)c3)cc2)cc1)NCCc1cccc(Cl)c1 (stereo not shown) [TCMDC-139648] | 4.18 µM | 7 | 0.61 µM | 685 | – |
| CC(=O)N(Cc1ccc(CC(C)NCCc2cccc(Cl)c2)cc1)Cc1ccc(CC(C)NCCc2cccc(Cl)c2)cc1 (stereo not shown) [TCMDC-139678] | 2.3 µM | 1.64 | 1.4 µM | 783 | – |
| COc1ccc(CCNC(C)Cc2ccc(C(=O)Nc3ccc(CC(C)NCCc4cccc(Cl)c4)cc3)cc2)cc1 (stereo not shown) [TCMDC-139750] | 2.4 µM | 4 | 0.62 µM | 248 | – |
| CC(CCCC(=O)Nc1ccc(CC(C)NCCc2cccc(Cl)c2)cc1)NCCc1cccc(Cl)c1 (stereo not shown) [TCMDC-139798] | 4.5 µM | 5.52 | 0.82 µM | 625 | 0.815 |
| CC(CCCCC(=O)Nc1ccc(CC(C)NCCc2cccc(Cl)c2)cc1)NCCc1cccc(Cl)c1 (stereo not shown) [TCMDC-139799] | 6.59 µM | 4 | 1.66 µM | 1010 | 1.66 |
| CCOc1ccccc1CCNC(C)Cc1ccc(C(=O)Nc2ccc(CC(C)NCCc3cccc(Cl)c3)cc2)cc1 (stereo not shown) [TCMDC-139805] | 3.5 µM | 5.71 | 0.61 µM | 539 | 0.613 |
| CCCCCCCN1CC[C@@H](CCCc2ccnc3ccc(OCC4CCCNC4)cc23)[C@@H](CC)C1 (stereo partly shown) [TCMDC-139816] | 4.18 µM | 14 | 0.3 µM | 625 | – |
| CCCCCCCN1CC[C@@H](CCCc2ccnc3ccc(OCCC4CCNCC4)cc23)[C@@H](CC)C1 [TCMDC-139819] | 4.5 µM | 11 | 0.42 µM | 610 | 0.415 |
| CC(Cc1ccc(COc2ccc(CC(CO)NCCc3cccc(Cl)c3)cc2)cc1)NCCc1cccc(Cl)c1 (stereo not shown) [TCMDC-139844] | 3.5 µM | 2.53 | 1.39 µM | 821 | 1.39 |
| Cc1oc(-c2ccc(Cl)cc2)cc1C(=O)NCCC1CCN(CCCCCNC(=O)/C=C/c2ccc(Cl)c(Cl)c2)CC1 [TCMDC-140009] | 4.1 µM | 0.755 | 5.43 µM | 446 | – |
| CC(Cc1ccc(OCCCCOc2ccccc2)cc1)NCCC1CCCN1C (stereo not shown) [TCMDC-140017] | < 1.56 µM | <16 | 0.095 µM | 40 | – |
| CN(CCCCN)Cc1ccc(-c2ccc(Cl)cc2)cc1 [TCMDC-140123] | 3.99 µM | 10 | 0.41 µM | 882 | 0.413 |
